According to BindingDB's records for doi:10.7270/Q28G8J4C (Broad Institute, 2009):
Where “and” joins values, the source holds several entries; their conditions need not be identical. Equal values may be shown once.

biological target: T1, POsterior Segregation (Caenorhabditis elegans, UniProt G5EF15); test: inhibitors of POS-1/mex-3 RNA binding, dose response, biochemical, fluorescence polarization (AID 1964)
T1 sequence (G5EF15 whole entry): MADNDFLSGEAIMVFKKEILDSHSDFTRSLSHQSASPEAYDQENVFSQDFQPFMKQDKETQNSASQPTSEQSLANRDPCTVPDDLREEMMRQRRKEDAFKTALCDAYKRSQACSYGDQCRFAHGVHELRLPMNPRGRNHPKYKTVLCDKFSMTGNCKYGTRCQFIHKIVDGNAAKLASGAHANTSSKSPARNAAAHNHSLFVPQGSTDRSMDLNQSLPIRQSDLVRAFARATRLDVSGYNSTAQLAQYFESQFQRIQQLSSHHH

**Q.** Which EC50 does the source give for Cc1cc(=O)n(-c2ccc(C(=O)O)c(N)c2)[nH]1 [MLS000690508] here?
**A.** 85.5 µM

**Q.** How did the EC50 turn out when CSc1nnc(N2C(=O)C(=O)C(C(=O)c3ccco3)C2c2ccc(F)cc2)s1 (stereo not drawn) [2-(4-fluorophenyl)-3-(furan-2-carbonyl)-4-hydroxy-1-(5-methylsulfanyl-1,3,4-thiadiazol-2-yl)-2H-pyrrol-5-one] was run?
**A.** 150 µM

**Q.** With Cc1ccc(N/N=C2/C(=O)Nc3ccc(F)cc32)cc1 [5-fluoro-3-[2-(4-methylphenyl)hydrazono]indolin-2-one] as the compound, how does the EC50 read?
**A.** > 300 µM

**Q.** Which EC50 does the source give for CSc1nncc(C(C)N=Nc2ccccc2)n1 (stereo not drawn) [1-[3-(methylsulfanyl)-1,2,4-triazin-5-yl]ethanone phenylhydrazone] here?
**A.** 41.3 µM

**Q.** Which EC50 does the source give for N#CC1C(=N)Oc2cc(O)c(Cl)cc2C1c1ccccc1F (stereo not drawn) [2-Amino-6-chloro-4-(2-fluoro-phenyl)-7-hydroxy-4H-chromene-3-carbonitrile] here?
**A.** > 300 µM

**Q.** With CN1CCC2(CC1)C(C#N)C(=N)NC(=S)C2C#N (stereo not drawn) [SMR000211480] as the compound, how does the EC50 read?
**A.** 8.05 µM

**Q.** With CCCCN1C(=O)/C(=C2/Sc3ccccc3N2C)SC1=Nc1nnc[nH]1 [SMR000282142] as the compound, how does the EC50 read?
**A.** 58.7 µM

**Q.** How did the EC50 turn out when NC(=NNC=c1ccc(=C2C=CC(=O)C(C(=O)O)=C2)o1)N[N+](=O)[O-] [5-(5-{2-[amino(nitroimino)methyl]carbonohydrazonoyl}-2-furyl)-2-hydroxybenzoic acid] was run?
**A.** 29.9 µM

**Q.** For CCOC(=O)c1c(NC=C2C(=O)NC(=S)NC2=O)sc(C)c1C [ethyl 2-[[4,6-bis(oxidanylidene)-2-sulfanylidene-1,3-diazinan-5-yl]methylideneamino]-4,5-dimethyl-thiophene-3-carboxylate], which EC50 is on record?
**A.** > 300 µM

**Q.** With CCCSc1nnc(N2C(=O)C(=O)C(C(=O)c3ccco3)C2c2ccccc2F)s1 (stereo not drawn) [2-(2-fluorophenyl)-3-(furan-2-carbonyl)-4-hydroxy-1-(5-propylsulfanyl-1,3,4-thiadiazol-2-yl)-2H-pyrrol-5-one] as the compound, how does the EC50 read?
**A.** > 300 µM

**Q.** How did the EC50 turn out when Cc1[nH]n(C(N)=S)c(=O)c1N=Nc1ccc(S(N)(=O)=O)cc1 [3-methyl-5-oxidanylidene-4-[(4-sulfamoylphenyl)diazenyl]-4H-pyrazole-1-carbothioamide] was run?
**A.** 19.7 µM

**Q.** Which EC50 does the source give for CN1CCC2=C(C#N)C(=N)C(C#N)(C#N)[C@H](c3cccc(Cl)c3)C2C1 (stereo partly drawn) [(8S)-6-amino-8-(3-chlorophenyl)-2-methyl-1,3,8,8a-tetrahydroisoquinoline-5,7,7-tricarbonitrile] here?
**A.** 12.5 µM

**Q.** With CCOc1cccc(C2C(C(=O)c3ccc(C)o3)C(=O)C(=O)N2c2nccs2)c1 (stereo not drawn) [2-(3-ethoxyphenyl)-3-(5-methylfuran-2-yl)carbonyl-4-oxidanyl-1-(1,3-thiazol-2-yl)-2H-pyrrol-5-one] as the compound, how does the EC50 read?
**A.** 1.41 µM

**Q.** With CCN(CC)c1ccc(NC=C2C(=O)NC(=O)N(Cc3ccccc3)C2=O)cc1 [(5E)-1-benzyl-5-[[4-(diethylamino)anilino]methylene]barbituric acid] as the compound, how does the EC50 read?
**A.** 30.1 µM and > 300 µM

**Q.** O=C(Cc1nc2ccccc2n(-c2ccccc2)c1=O)c1ccccc1 [(3Z)-3-phenacylidene-1-phenyl-4H-quinoxalin-2-one] was tested. Which EC50 did it give?
**A.** 78.2 µM

**Q.** With CC1(C)c2[nH]c3ccccc3c2Cc2c(O)n(-c3ccc(F)cc3F)c(=O)n21 [MLS001065879] as the compound, how does the EC50 read?
**A.** > 300 µM

**Q.** How did the EC50 turn out when CC1=C(C#N)C(=O)N(C)C(=O)C1=CNNc1ccc(C)c(C)c1 [MLS000698328] was run?
**A.** > 300 µM

**Q.** COc1ccccc1N1C(=O)NC(=O)C(=Cc2c[nH]c3ccccc23)C1=O [SMR000495900] was tested. Which EC50 did it give?
**A.** > 300 µM

**Q.** For CC(N=Nc1ccc(Cl)c(C(=O)O)c1)c1ccc[nH]1 (stereo not drawn) [2-chloro-5-[2-[(1Z)-1-pyrrol-2-ylideneethyl]hydrazinyl]benzoic acid], which EC50 is on record?
**A.** > 300 µM

**Q.** Which EC50 does the source give for Cc1ccc2oc(=O)c(CC(=O)CC(C)C)nc2c1 [(3Z)-3-(2-keto-4-methyl-pentylidene)-6-methyl-4H-1,4-benzoxazin-2-one] here?
**A.** > 300 µM

**Q.** How did the EC50 turn out when COc1ccc(C=C2CCCC(C(=O)C(F)(F)F)C2=O)cc1OC (stereo not drawn) [(2E,6Z)-2-(3,4-dimethoxybenzylidene)-6-(2,2,2-trifluoro-1-hydroxyethylidene)cyclohexanone] was run?
**A.** > 300 µM

**Q.** CCN(CC)CCN1C(=O)C(=O)C(C(=O)c2cc3cccc(OC)c3o2)C1c1ccc(F)cc1 (stereo not drawn) [1-(2-Diethylamino-ethyl)-5-(4-fluoro-phenyl)-3-hydroxy-4-(7-methoxy-benzofuran-2-carbonyl)-1,5-dihydr o-pyrrol-2-one] was tested. Which EC50 did it give?
**A.** > 300 µM

**Q.** With Cc1ccc(N=CC2Sc3ccccc3NC2=O)cc1 (stereo not drawn) [(2E)-2-(p-toluidinomethylene)-4H-1,4-benzothiazin-3-one] as the compound, how does the EC50 read?
**A.** > 300 µM

**Q.** With O=C1NC(=O)N(CCc2ccccc2)C(=O)C1=CNNC(=O)c1ccncc1 [N'-[(E)-[2,4,6-trioxo-1-(2-phenylethyl)-1,3-diazinan-5-ylidene]methyl]-4-pyridinecarbohydrazide] as the compound, how does the EC50 read?
**A.** > 300 µM

**Q.** Which EC50 does the source give for COc1cccc(CN2C(=O)C3(C4=C(CCCC4=O)OC(=N)C3C#N)c3ccccc32)c1 (stereo not drawn) [2-amino-1'-(3-methoxybenzyl)-2',5-dioxo-1',2',5,6,7,8-hexahydrospiro[chromene-4,3'-indole]-3-carbonitrile] here?
**A.** > 300 µM

**Q.** Cc1ccc(-c2c(CCC(C)N=O)oc3ccc(Cl)cc23)o1 (stereo not drawn) [4-[5-chloro-3-(5-methyl-2-furanyl)-2-benzofuranyl]-2-butanone oxime] was tested. Which EC50 did it give?
**A.** > 300 µM

**Q.** For COc1ccc(OC)c(N2C(=O)C(=Cc3ccco3)C(=O)NC2=S)c1 [MLS001197216], which EC50 is on record?
**A.** 10.4 µM

**Q.** For C=c1[nH]n(-c2cccc(C(=O)O)c2)c(=O)c1=CC=Cc1ccco1 [SMR000113614], which EC50 is on record?
**A.** 19.9 µM

**Q.** For O=C(c1ccccc1)c1[nH]n(-c2ccccc2)c2c(O)n(-c3ccccc3Cl)c(=O)c1-2 [SMR000212371], which EC50 is on record?
**A.** > 300 µM

**Q.** CC1(C)CC(=O)C2=C(C1)OC(=N)C(C#N)C21C(=O)N(CN2CCOCC2)c2ccccc21 (stereo not drawn) [2-amino-2',5-diketo-7,7-dimethyl-1'-(morpholinomethyl)spiro[6,8-dihydrochromene-4,3'-indoline]-3-carbonitrile] was tested. Which EC50 did it give?
**A.** > 300 µM

**Q.** How did the EC50 turn out when C=CCSc1nnc(N2C(=O)C(=O)C(C(=O)c3ccco3)C2c2ccccc2F)s1 (stereo not drawn) [1-[5-(allylthio)-1,3,4-thiadiazol-2-yl]-5-(2-fluorophenyl)-4-(2-furoyl)-3-hydroxy-3-pyrrolin-2-one] was run?
**A.** 48.3 µM

**Q.** Which EC50 does the source give for O=C(N/N=C/C1C=C(Cl)C=C([N+](=O)[O-])C1=O)c1ccc2c(c1)OCO2 (stereo not drawn) [N'-[(E)-(3-chloranyl-5-nitro-6-oxidanylidene-cyclohexa-2,4-dien-1-ylidene)methyl]-1,3-benzodioxole-5-carbohydrazide] here?
**A.** 127 µM

**Q.** For O=c1c2ccccc2nc(N=NCc2ccc(O)cc2)n1O [3-Hydroxy-2-{N'-[1-(4-hydroxy-phenyl)-meth-(E)-ylidene]-hydrazino}-3H-quinazolin-4-one], which EC50 is on record?
**A.** > 300 µM

**Q.** For O=C(O)c1ccc(NN=CC2=C(N3CCOCC3)C(=Cc3ccccc3)CC2)cc1 [4-[2-[[(3Z)-2-(4-morpholinyl)-3-(phenylmethylene)-1-cyclopentenyl]methylidene]hydrazinyl]benzoic acid], which EC50 is on record?
**A.** 176 µM

**Q.** For COc1ccc(C(=O)CC=Nc2ccc([N+](=O)[O-])cc2C)c(OC)c1 [(E)-1-(2,4-dimethoxyphenyl)-3-(2-methyl-4-nitro-anilino)prop-2-en-1-one], which EC50 is on record?
**A.** > 300 µM

**Q.** With CCCN1CCC2=C(C#N)C(=N)C(C#N)(C#N)C(c3cc(OC)ccc3OC)C2C1 (stereo not drawn) [6-Amino-8-(2,5-dimethoxy-phenyl)-2-propyl-2,3,8,8a-tetrahydro-1H-isoquinoline-5,7,7-tricarbonitrile] as the compound, how does the EC50 read?
**A.** 27.9 µM

**Q.** For COc1ccc(C2C3=C(CC(C)(C)CC3=O)OC(=N)C2C#N)cc1OC (stereo not drawn) [2-amino-4-(3,4-dimethoxyphenyl)-5-keto-7,7-dimethyl-6,8-dihydro-4H-chromene-3-carbonitrile], which EC50 is on record?
**A.** > 300 µM

**Q.** With CCCCOC(=O)c1ccc(NN=C2C(=O)NC(=O)C(C#N)=C2C)cc1 [MLS000778379] as the compound, how does the EC50 read?
**A.** > 300 µM

**Q.** For COc1ccc(C2C3=C(CC(C)CC3=O)OC(=N)C2C#N)c(OC)c1OC (stereo not drawn) [2-amino-5-keto-7-methyl-4-(2,3,4-trimethoxyphenyl)-4,6,7,8-tetrahydrochromene-3-carbonitrile], which EC50 is on record?
**A.** > 300 µM

**Q.** For O=C(Cc1nc2cc(Cl)ccc2oc1=O)c1ccco1 [(3Z)-6-chloranyl-3-[2-(furan-2-yl)-2-oxidanylidene-ethylidene]-4H-1,4-benzoxazin-2-one], which EC50 is on record?
**A.** > 300 µM

**Q.** For O=C1N=C(O)C(C2=c3cc([N+](=O)[O-])ccc3=NC2=O)S1 (stereo not drawn) [MLS001163276], which EC50 is on record?
**A.** 13.2 µM

**Q.** COc1cc(C2C3=C(CC(C)(C)CC3=O)OC(=N)C2C#N)ccc1OCCN1CCOCC1 (stereo not drawn) [MLS000779948] was tested. Which EC50 did it give?
**A.** > 300 µM

**Q.** With CN(C)[C@@H]1C(=O)C(C(N)=O)C(=O)[C@@]2(O)C(=O)C3C(=O)c4c(O)cccc4[C@@](C)(O)[C@H]3[C@H](O)[C@@H]12 (stereo partly drawn) [(2E,4S,4aR,5S,5aR,6S,12aS)-2-[azanyl(oxidanyl)methylidene]-4-(dimethylamino)-6-methyl-5,6,10,11,12a-pentakis(oxidanyl)-4,4a,5,5a-tetrahydrotetracene-1,3,12-trione] as the compound, how does the EC50 read?
**A.** 65.8 µM

**Q.** Which EC50 does the source give for O=NC1CC2(CC(N=O)C1N=O)OCCO2 (stereo not drawn) [9-(hydroxyamino)-8-nitroso-1,4-dioxaspiro[4.5]dec-8-en-7-one oxime] here?
**A.** > 300 µM

**Q.** How did the EC50 turn out when N#CC1=C2CCOCC2C(c2cccnc2)C(C#N)(C#N)C1=N (stereo not drawn) [6-Amino-8-pyridin-3-yl-8,8a-dihydro-1H,3H-isochromene-5,7,7-tricarbonitrile] was run?
**A.** > 300 µM

**Q.** With Cc1ncc(CO)c(CNNC(=O)C2=CC(=O)C(=O)C(=O)C2)c1O [3,4,5-trihydroxy-N'-{(1E)-[3-hydroxy-5-(hydroxymethyl)-2-methylpyridin-4-yl]methylene}benzohydrazide] as the compound, how does the EC50 read?
**A.** 71.2 µM

**Q.** How did the EC50 turn out when Cc1ccc(C(=O)Cc2nc3cc(C)ccc3oc2=O)cc1 [(3Z)-3-[2-keto-2-(p-tolyl)ethylidene]-6-methyl-4H-1,4-benzoxazin-2-one] was run?
**A.** 7.64 µM

**Q.** With Cc1cc(N2C(=O)C(=O)C(C(=O)c3cc4ccccc4o3)C2c2ccc([N+](=O)[O-])cc2)no1 (stereo not drawn) [3-(1-benzofuran-2-carbonyl)-4-hydroxy-1-(5-methyl-1,2-oxazol-3-yl)-2-(4-nitrophenyl)-2H-pyrrol-5-one] as the compound, how does the EC50 read?
**A.** > 300 µM
